We go through two compounds from patent publication US20100166933A1, “Frozen Confectionery and Beverage Products” (priority 2008, published 2010).

A short description of data set [1]: Human crossover study, systolic blood pressure (Example 4). As to conditions: theobromine 700 mg, caffeine 120 mg; for Change in systolic blood pressure, 1 hour: 1 hour after treatment; for Change in systolic blood pressure, 1 hour / Change in systolic blood pressure, 3 hours / Change in systolic blood pressure, Time zero: gelatine capsule; for Change in systolic blood pressure, 3 hours: 3 hours after treatment. The source says:
(§1) Volunteers consumed one of 4 treatments: theobromine only, caffeine only, theobromine and caffeine combined or placebo. […] Theobromine was pharmaceutical grade, supplied by Fagron, Netherlands. […] The placebo capsules matched in appearance and were filled with Avicel (microcrystalline cellulose). The gelatin capsules (size 1) were supplied by Blockland Medical supplies and meet European Pharmacopoeia (Ph. Eur) standards. […] Twenty-four healthy volunteers took part and arrived at the laboratory having consumed a standard lunch and having abstained from theobromine- and caffeine-containing foods such as chocolate for 12 hours. At the start of each session, participants answered a baseline set of questionnaires, which took approximately 15 minutes to complete. On completion, they were given a 10 minute break in which to consume the capsules. The questionnaire was repeated 1, 2 and 3 hours after ingestion. Blood pressure was measured at 0, 1 and 3 hours after treatment. Participants were allowed to read quietly between test batteries.

Data set [2] in a line: Human crossover study, Bond-Lader mood questionnaire: alertness (Example 4). As to conditions: theobromine 700 mg, caffeine 120 mg, gelatine capsule; for Alertness score in Bond-Lader test, 1 hour: 1 hour after ingestion; for Alertness score in Bond-Lader test, 2 hours: 2 hours after ingestion; for Alertness score in Bond-Lader test, 3 hours: 3 hours after ingestion; for Alertness score in Bond-Lader test, Time zero: time zero (baseline), 24 healthy volunteers. The format is in vivo.
Excerpt: as §1

`Cn1c(=O)c2c(ncn2C)n(C)c1=O` [Caffeine, 1,3,7-trimethylxanthine]: in data set [1], the “Change in systolic blood pressure, 1 hour” value is “+10 Hgmm”; the “Change in systolic blood pressure, 3 hours” value was −3 Hgmm; the “Change in systolic blood pressure, Time zero” value is 0 Hgmm. The “Effect on systolic blood pressure after 1 hour (in words)” value in data set [1] (after 1 hour) is on record as “rise in systolic blood pressure (significantly higher than placebo)”. Further, in data set [2], the “Alertness score in Bond-Lader test, 1 hour” value is listed as “+0.01”; the “Alertness score in Bond-Lader test, 2 hours” value was “+0.05”; the “Alertness score in Bond-Lader test, 3 hours” value is recorded as “+0.07”; the “Alertness score in Bond-Lader test, Time zero” value came out at 0.

Turning to `Cn1cnc2c1c(=O)[nH]c(=O)n2C` [Theobromine, 3,7-dimethylxanthine], in data set [1], the “Change in systolic blood pressure, 1 hour” value is “+3 Hgmm”; the “Change in systolic blood pressure, 3 hours” value is “+4 Hgmm”; the “Change in systolic blood pressure, Time zero” value stood at 0 Hgmm. For the same compound, in data set [2], the “Alertness score in Bond-Lader test, 1 hour” value is −0.06; the “Alertness score in Bond-Lader test, 2 hours” value is −0.03; the “Alertness score in Bond-Lader test, 3 hours” value was −0.01; the “Alertness score in Bond-Lader test, Time zero” value turned out to be 0.
